According to ChEMBL document CHEMBL3120112, “Novel bronchodilatory quinazolines and quinoxalines: synthesis and biological evaluation” (Eur J Med Chem, 2014):
The source made the active and inactive calls. The rule behind the calls is not given here.

Assays:
[1] = Bronchodilatory activity in Wistar rat trachea assessed as inhibition of carbacol-induced contraction; format: functional; settings: read-out: ED50 (the source's name)
Rattus norvegicus [2] = species on record: Rattus norvegicus; settings: Wistar, Trachea
Cavia porcellus = species on record: Cavia porcellus; experiment: Agonist activity at guinea pig trachea beta adrenergic receptor assessed as relaxation effect in presence of propranolol
Rattus norvegicus [3] = species on record: Rattus norvegicus; experiment: Antagonist activity at rat trachea muscarinic acetylcholine receptor assessed as inhibition of carbachol-induced contraction preincubated for 10 mins followed by agonist challenge
[4] = Acute toxicity in ip dosed ICR mouse; format: organism-based; settings: in vivo
Mus musculus [5] = experiment: Toxicity in ICR mouse assessed as change in body weight at 18 to 54 mg/kg, po qd for 7 days measured every day for 7 days; format: organism-based; design: dose 18-54 mg/kg, route oral; settings: in vivo, 168 h
Mus musculus [6] = experiment: Toxicity in ICR mouse assessed as mortality at 18 to 54 mg/kg, po qd for 7 days measured every day for 7 days; format: organism-based; design: dose 18-54 mg/kg, route oral; settings: in vivo, 168 h
Trachea = experiment: Potency index, ratio of theophylline ED50 to compound ED50 for bronchodilatory activity in Wistar rat trachea; format: functional
[7] = Bronchodilatory activity in guinea pig trachea assessed as inhibition of contraction; format: functional, tissue-based
Mus musculus [8] = experiment: Toxicity in ICR mouse assessed as change in kidney weight at 54 mg/kg, po qd for 7 days measured every day for 7 days (0.248 +/- 0.026 g); format: organism-based; design: dose 54 mg/kg, route oral; settings: in vivo, 168 h
Mus musculus [9] = experiment: Toxicity in ICR mouse assessed as change in liver weight at 36 mg/kg, po qd for 7 days measured every day for 7 days (1.772 +/- 0.120 g); format: organism-based; design: dose 36 mg/kg, route oral; settings: in vivo, 168 h
Mus musculus [10] = experiment: Toxicity in ICR mouse assessed as change in testicle weight at 18 mg/kg, po qd for 7 days measured every day for 7 days (0.118 +/- 0.004 g); format: organism-based; design: dose 18 mg/kg, route oral; settings: in vivo, 168 h
Mus musculus [11] = experiment: Toxicity in ICR mouse assessed as change in liver weight at 54 mg/kg, po qd for 7 days measured every day for 7 days (1.772 +/- 0.120 g); format: organism-based; design: dose 54 mg/kg, route oral; settings: in vivo, 168 h
Mus musculus [12] = experiment: Toxicity in ICR mouse assessed as change in liver weight at 18 mg/kg, po qd for 7 days measured every day for 7 days (1.772 +/- 0.120 g); format: organism-based; design: dose 18 mg/kg, route oral; settings: in vivo, 168 h
Mus musculus [13] = experiment: Toxicity in ICR mouse assessed as change in heart weight at 36 mg/kg, po qd for 7 days measured every day for 7 days (0.155 +/- 0.002 g); format: organism-based; design: dose 36 mg/kg, route oral; settings: in vivo, 168 h
Mus musculus [14] = experiment: Toxicity in ICR mouse assessed as change in testicle weight at 36 mg/kg, po qd for 7 days measured every day for 7 days (0.118 +/- 0.004 g); format: organism-based; design: dose 36 mg/kg, route oral; settings: in vivo, 168 h
Mus musculus [15] = experiment: Toxicity in ICR mouse assessed as change in heart weight at 54 mg/kg, po qd for 7 days measured every day for 7 days (0.155 +/- 0.002 g); format: organism-based; design: dose 54 mg/kg, route oral; settings: in vivo, 168 h
Mus musculus [16] = experiment: Toxicity in ICR mouse assessed as change in kidney weight at 18 mg/kg, po qd for 7 days measured every day for 7 days (0.248 +/- 0.026 g); format: organism-based; design: dose 18 mg/kg, route oral; settings: in vivo, 168 h
Mus musculus [17] = experiment: Toxicity in ICR mouse assessed as change in spleen weight at 36 mg/kg, po qd for 7 days measured every day for 7 days (0.143 +/- 0.033 g); format: organism-based; design: dose 36 mg/kg, route oral; settings: in vivo, 168 h
Mus musculus [18] = experiment: Toxicity in ICR mouse assessed as change in testicle weight at 54 mg/kg, po qd for 7 days measured every day for 7 days (0.118 +/- 0.004 g); format: organism-based; design: dose 54 mg/kg, route oral; settings: in vivo, 168 h
Mus musculus [19] = experiment: Toxicity in ICR mouse assessed as change in spleen weight at 54 mg/kg, po qd for 7 days measured every day for 7 days (0.143 +/- 0.033 g); format: organism-based; design: dose 54 mg/kg, route oral; settings: in vivo, 168 h
Mus musculus [20] = experiment: Toxicity in ICR mouse assessed as change in heart weight at 18 mg/kg, po qd for 7 days measured every day for 7 days (0.155 +/- 0.002 g); format: organism-based; design: dose 18 mg/kg, route oral; settings: in vivo, 168 h
Mus musculus [21] = experiment: Toxicity in ICR mouse assessed as change in spleen weight at 18 mg/kg, po qd for 7 days measured every day for 7 days (0.143 +/- 0.033 g); format: organism-based; design: dose 18 mg/kg, route oral; settings: in vivo, 168 h
Mus musculus [22] = experiment: Toxicity in ICR mouse assessed as change in kidney weight at 36 mg/kg, po qd for 7 days measured every day for 7 days (0.248 +/- 0.026 g); format: organism-based; design: dose 36 mg/kg, route oral; settings: in vivo, 168 h

EC50 [1] [µM]	SMILES	further results
104	CN1CCCC1CCn1cnc2ccccc2c1=O (centres undefined)	–
–	O=C(O)Cn1cnc2ccccc2c1=O	ED50 (Rattus norvegicus [2]): inactive
562	O=c1c2ccccc2ncn1CCN1CCCC1	–
45.3	O=c1c2ccccc2[n+]([O-])cn1CCCN1CCCCC1	–
65.3	CN(C)CCSc1ncnc2ccccc12	–
178	O=c1c2ccccc2ncn1CCN1CCCCC1	–
58.7	c1ccc2c(SCCCN3CCCCC3)ccnc2c1	–
162	CN(C)CCOc1ncnc2ccccc12	–
4230	O=c1ccn(CCCN2CCCCC2)cc1	–
440	CN(C)CCn1cnc2ccccc2c1=O	–
132	c1ccc2c(OCCCN3CCCCC3)ncnc2c1	–
747	Cn1cnc2ccccc2c1=O	–
2860	O=c1c2ccccc2nc2n1CC[C@@H]2O	–
76.6	CN1CCCC1CCSc1ncnc2ccccc12 (centres undefined)	–
–	c1ccc2c(SCCCN3CCCCC3)ncnc2c1 [listing 2 of 2 here]	Activity (Cavia porcellus): Active; Activity (Rattus norvegicus [3]): Active
–	COc1cc2nc3n(c(=O)c2cc1OC)CCCCC3	EC50 [7]: 73 µM
301	c1ccc2c(OCCN3CCCCC3)ncnc2c1	–
258	c1ccc2c(NCCN3CCOCC3)ncnc2c1	–
43	O=c1cnc2ccccc2n1CCCN1CCCCC1	–
191	c1ccc2c(NCCN3CCCCC3)ncnc2c1	–
–	Cl.c1ccc2c(SCCCN3CCCCC3)ncnc2c1	Activity (Mus musculus [8]): 0.242 g; Activity (Mus musculus [9]): 1.679 g; Activity (Mus musculus [10]): 0.122 g; Activity (Mus musculus [11]): 1.64 g; Activity (Mus musculus [12]): 1.762 g; Activity (Mus musculus [13]): 0.154 g; Activity (Mus musculus [14]): 0.116 g; Activity (Mus musculus [15]): 0.144 g; Activity (Mus musculus [16]): 0.24 g; Activity (Mus musculus [17]): 0.147 g; Activity (Mus musculus [18]): 0.115 g; Activity (Mus musculus [19]): 0.131 g; Activity (Mus musculus [20]): 0.146 g; Activity (Mus musculus [21]): 0.134 g; Activity (Mus musculus [22]): 0.238 g; LD50 [4]: 89.1 mg/kg
946	O=c1ccn(CCCN2CCCCC2)c2ccccc12	–
173	CN1CCCC1CCNc1ncnc2ccccc12 (centres undefined)	–
1900	O=c1c2ccccc2ncn1CCN1CCOCC1	–
601	O=c1c2ccccc2ncn1CCC[N+]1([O-])CCCCC1	–
–	Cl.O=c1c2ccccc2ncn1CCCN1CCCCC1	LD50 [4]: 162 mg/kg
1120	O=c1ccncn1CCCN1CCCCC1	–

SMILES	EC50 [1] [µM]	further results
Cl.c1ccc2nc(SCCCN3CCCCC3)cnc2c1	3.26	Activity (Cavia porcellus): Active; Activity (Rattus norvegicus [3]): Active; LD50 [4]: 104 mg/kg
c1ccc2c(SCCCN3CCCCC3)ncnc2c1 [listing 1 of 2 here]	3.42	Activity (Mus musculus [5]): Non-toxic; Activity (Mus musculus [6]): Non-toxic
O=c1c2ccccc2ncn1CCCN1CCCCC1	28.3	Ratio ED50 (Trachea): 100
Cn1c(=O)c2nc[nH]c2n(C)c1=O [THEOPHYLLINE]	2090	–
O=c1[nH]cnc2ccccc12 [QUINAZOLINONE]	810	–
